Values quoted from earlier work as cited in patent US20050164987A1, “Melatonin combination therapy for improving sleep quality” (priority 2003, published 2005).
Read-outs that look alike come from different tables or passages of the source.

Key:
MT-3 melatonin sites = conditions: hamster brain
[1] = system: other melatonin receptors
levels of melatonin = conditions: rats
human MT1 receptors = human MT1 receptors (Homo sapiens, UniProt P48039)
[2] = in vivo
physiological rhythms = conditions: 5 mg dose; simulated 9 h time lag
[3] = system: mammalian melatonin receptors
rats [4] = system: rats
ML2 receptors = ML2 receptors (Homo sapiens, UniProt P16083)
rats [5] = system: rats; remark: listed apart in the source
[6] = biological target: T1, brain omega-1 receptor located on alpha subunit of the GABAA/chloride ion channel receptor complex (Homo sapiens, UniProt P14867+P18507)
T1 construct: host or cells: brain

[7] = not given; remark: listed apart in the source
[8] = system: patients with major depressive disorder; conditions: 1, 5 and 25 mg once a day vs placebo, 8 weeks, over 700 patients
mice = conditions: reference agents; scores below 40 denote behavioral depression
[9] = system: L-glutamate 1-carboxylase; conditions: concentrations of 10^−3 M
GABA uptake system = conditions: concentrations of 5×10^-4 M
[10] = system: lumbar dorsal horn interneurones and Renshaw cells; conditions: in vivo
sleep = conditions: post-nap
[11] = biological target: GABA:2-oxo-glutarate aminotransferase (Homo sapiens, UniProt P80404); conditions: concentrations of 10^−3 M
[12] = system: healthy, elderly patients; conditions: oral administration
[13] = system: calcium-dependent release of dopamine from chicken retina; conditions: picomolar concentrations
[14] = system: calcium-dependent release of dopamine from rabbit retina; conditions: picomolar concentrations
[15] = not given; remark: listed apart in the source
[16] = from the stomach
[17] = 10 mg or 64 mg dosages, compared to placebo

T1 sequence (P14867 28-456): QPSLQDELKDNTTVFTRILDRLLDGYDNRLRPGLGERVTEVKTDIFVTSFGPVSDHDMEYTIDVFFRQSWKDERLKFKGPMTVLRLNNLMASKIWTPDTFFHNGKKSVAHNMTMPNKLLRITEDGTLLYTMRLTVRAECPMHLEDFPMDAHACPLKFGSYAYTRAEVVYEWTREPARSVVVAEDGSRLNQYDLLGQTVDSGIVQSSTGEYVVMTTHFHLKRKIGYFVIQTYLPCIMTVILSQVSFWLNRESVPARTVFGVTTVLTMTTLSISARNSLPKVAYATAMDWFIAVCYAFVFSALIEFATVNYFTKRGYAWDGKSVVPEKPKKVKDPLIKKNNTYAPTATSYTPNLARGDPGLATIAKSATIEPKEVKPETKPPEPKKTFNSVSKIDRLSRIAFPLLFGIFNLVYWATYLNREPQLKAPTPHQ
T1 sequence (P18507 40-475): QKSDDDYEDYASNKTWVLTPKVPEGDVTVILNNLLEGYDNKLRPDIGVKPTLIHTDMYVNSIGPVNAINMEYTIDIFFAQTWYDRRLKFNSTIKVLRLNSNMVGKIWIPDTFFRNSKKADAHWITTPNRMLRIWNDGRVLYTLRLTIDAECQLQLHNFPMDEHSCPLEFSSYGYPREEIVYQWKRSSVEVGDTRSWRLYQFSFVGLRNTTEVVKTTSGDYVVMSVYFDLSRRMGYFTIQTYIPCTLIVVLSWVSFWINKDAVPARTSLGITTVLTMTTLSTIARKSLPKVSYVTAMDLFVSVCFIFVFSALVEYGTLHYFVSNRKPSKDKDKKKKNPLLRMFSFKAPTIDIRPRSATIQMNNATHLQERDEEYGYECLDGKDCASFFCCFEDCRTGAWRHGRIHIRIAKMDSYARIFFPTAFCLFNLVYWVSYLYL
T1 sequence (P47870 25-512 partner limits assumed): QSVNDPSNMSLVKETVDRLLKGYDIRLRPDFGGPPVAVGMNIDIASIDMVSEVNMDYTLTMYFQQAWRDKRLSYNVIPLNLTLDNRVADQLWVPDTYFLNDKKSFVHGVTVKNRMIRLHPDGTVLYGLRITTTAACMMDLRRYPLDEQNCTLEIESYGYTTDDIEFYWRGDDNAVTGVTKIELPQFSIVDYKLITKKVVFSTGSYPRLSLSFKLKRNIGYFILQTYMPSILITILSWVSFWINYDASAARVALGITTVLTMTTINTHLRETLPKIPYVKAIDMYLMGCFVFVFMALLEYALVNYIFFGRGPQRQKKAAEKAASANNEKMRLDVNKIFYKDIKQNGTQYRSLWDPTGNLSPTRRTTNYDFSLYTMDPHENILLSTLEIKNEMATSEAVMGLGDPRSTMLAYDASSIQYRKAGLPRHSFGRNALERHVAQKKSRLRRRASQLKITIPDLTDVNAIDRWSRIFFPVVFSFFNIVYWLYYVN
GABA:2-oxo-glutarate aminotransferase, sequence (P80404 29-500): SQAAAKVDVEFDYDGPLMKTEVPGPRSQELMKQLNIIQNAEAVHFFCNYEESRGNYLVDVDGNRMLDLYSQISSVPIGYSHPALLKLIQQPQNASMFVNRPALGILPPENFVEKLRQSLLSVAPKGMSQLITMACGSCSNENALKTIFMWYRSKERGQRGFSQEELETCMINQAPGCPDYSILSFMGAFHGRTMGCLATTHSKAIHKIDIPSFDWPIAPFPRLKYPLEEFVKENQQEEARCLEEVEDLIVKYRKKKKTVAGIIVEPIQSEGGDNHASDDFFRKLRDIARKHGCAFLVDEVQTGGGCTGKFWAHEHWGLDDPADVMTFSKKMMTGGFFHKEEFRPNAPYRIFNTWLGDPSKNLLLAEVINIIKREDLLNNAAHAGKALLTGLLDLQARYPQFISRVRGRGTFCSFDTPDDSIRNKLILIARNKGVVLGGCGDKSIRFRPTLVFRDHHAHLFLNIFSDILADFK
human MT1 receptors, sequence (P48039 whole entry): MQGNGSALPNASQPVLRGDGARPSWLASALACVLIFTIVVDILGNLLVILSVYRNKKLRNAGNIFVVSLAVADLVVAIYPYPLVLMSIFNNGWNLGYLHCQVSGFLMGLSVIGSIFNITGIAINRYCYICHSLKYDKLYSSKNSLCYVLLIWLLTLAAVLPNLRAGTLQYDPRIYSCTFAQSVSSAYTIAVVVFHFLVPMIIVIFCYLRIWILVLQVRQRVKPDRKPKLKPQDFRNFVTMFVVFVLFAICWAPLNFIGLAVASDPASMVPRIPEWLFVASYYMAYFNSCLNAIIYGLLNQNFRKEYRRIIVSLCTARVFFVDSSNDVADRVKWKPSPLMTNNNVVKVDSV
ML2 receptors, sequence (P16083 whole entry): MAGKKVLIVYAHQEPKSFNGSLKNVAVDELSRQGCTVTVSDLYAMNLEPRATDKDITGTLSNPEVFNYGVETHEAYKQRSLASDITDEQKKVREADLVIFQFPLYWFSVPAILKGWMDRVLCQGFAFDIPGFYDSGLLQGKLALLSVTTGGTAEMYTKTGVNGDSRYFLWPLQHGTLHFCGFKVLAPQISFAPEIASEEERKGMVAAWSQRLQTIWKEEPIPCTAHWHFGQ

In the case of `COC(=O)Nc1ccc2[nH]cc(CCNC(C)=O)c2c1` [5-MCA-NAT, 5-methoxy-carbonylamino-N-acetyltryptamine], the “affinity for MT-3 melatonin sites” value (MT-3 melatonin sites) is listed as “high affinity” and the “affinity or efficacy for other melatonin receptors” value [1] is listed as “low affinity or efficacy”.
For `COc1cccc2c1CC(NC(C)=O)CC2` (centres unmarked) [AH-001, 2-acetamido-8-methoxytetralin], the levels of melatonin (levels of melatonin) is listed as “increase”.
For `CCC(=O)NCC1Cc2cccc(OC)c2C1` (centres unmarked) [GG-012, 4-methoxy-2-(methylenepropylamide)indan], the levels of melatonin (levels of melatonin) is given as “two-fold increase”.
In the case of `CC(=O)NCCN1CCc2ccc3c(c21)CCO3` [GR196429, N-[2-[2,3,7,8-tetrahydro-1H-furo(2,3-g)indol-1-yl]ethyl]acetamide], the pKi (human MT1 receptors) is listed as 9.9.
For `CC(=O)N(C)c1cccc(-c2ccnc3c(C(=O)c4cccs4)cnn23)c1` [Indiplon, N-methyl-N-(3-{3-[2-thienylcarbonyl]-pyrazolo-[1,5-a]-pyrimidin-7-yl}-phenyl)acetamide], the half-life [2] is listed as “approximately 1.3 hours”.
For `COc1cc2c([C@@H](C)CNC(C)=O)c[nH]c2cc1Cl` [LY 156735], the “readaptation speed of physiological rhythms” value (physiological rhythms) is listed as “enhanced the readaptation speed”.
In the case of `CC(=O)NCCc1c(Cc2ccccc2)[nH]c2ccccc12` [Luzindole, 2-benzyl-N-acetyltryptamine], the “calcium-dependent release of [3H]dopamine” value ([3]; concentrations up to 10 μM) is given as “does not modify”, the “spontaneous outflow of [3H]dopamine” value ([3]; concentrations up to 10 μM) is given as “does not modify” and the “ability of melatonin to inhibit [3H]dopamine release” value ([3]; in a competitive fashion) is given as “antagonize”.
For `COc1ccc2[nH]cc(CCNc3ccc([N+](=O)[O-])cc3[N+](=O)[O-])c2c1` [ML-23, N-2,4-dinitrophenyl-5-methoxy-tryptamine], the “development of severe motor impairment” value (rats [4]) is given as “prevented”.
In the case of `CP(=O)(O)CCCN` [SKF 97541, 3-aminopropyl(methyl)phosphinic acid], the “solubility in water and dilute aqueous base” value is given as “readily soluble”.
In the case of `CCC(=O)NCC[C@@H]1CCc2ccc3c(c21)CCO3` [TAK-375], the “affinity for ML1 receptors” value (ML1 receptors) is given as “very high affinity”, the “selectivity with respect to ML2 receptors” value (ML2 receptors) is given as “excellent selectivity” and the “binding affinity for dopamine receptors” value (dopamine receptors) is given as “virtually no binding affinity”. For the same compound, the “binding affinity for opiate receptors” value (opiate receptors) was “virtually no binding affinity”, the “binding affinity for benzodiazepine receptors” value (benzodiazepine receptors) was “virtually no binding affinity” and the falling asleep (human subjects; [17]) was “fall asleep more quickly”. For the same compound, the remaining asleep (human subjects; [17]) was “remain asleep for a longer period of time”, the side effects (human subjects; human subjects) was “limited to only a few cases of headache, somnolence, fatigue, nausea, and dissiness” and the “duration of sleep-promoting effects” value (rats [5]; compared with melatonin) was “last longer than those of melatonin”. For the same compound, the learning or memory (rats [5]; rat, in vivo) was “did not impair” and the “potential for drug dependence” value (rats [5]; rats) was “did not demonstrate the potential for drug dependence”.
For `CCN(C(C)=O)c1cccc(-c2ccnc3c(C#N)cnn23)c1` [Zaleplon, N-[3-(3-cyanopyrazolo[1,5-a]pyrimidin-7-yl)phenyl]-N-ethylacetamide], the “binding to brain omega-1 receptor” value [6] is given as “binds selectively”, the “time of peak plasma concentrations” value ([7]; following oral administration) is given as 1 h and the bioavailability ([7]; oral, substantial presystemic metabolism) is given as 30%.
In the case of `COc1ccc2cccc(CCNC(C)=O)c2c1` [agomelatine], the optimal dosage [8] is listed as 25 mg.
In the case of `CN1C(=O)CN=C(c2ccccc2)c2cc(Cl)ccc21` [diazepam, 7-chloro-1,3-dihydro-1-methyl-5-phenyl-2H-1,4-benzodiazepin-2-one], the ED100 (mice) is listed as 50 mg/kg.
In the case of `Oc1noc2c1CCNC2` [gaboxadol, 4,5,6,7-tetrahydroisoxazolo[5,4-c]pyridin-3-ol], the “interaction with L-glutamate 1-carboxylase” value [9] is given as “did not interact”, the “interaction with the GABA uptake system” value (GABA uptake system) is given as “did not interact” and the “effect of bicuculline methochloride (BMC) on the inhibitory action on central neurones” value [10] is given as “reversibly antagonized”. The deep sleep (sleep) was “promoting”, the falling asleep (sleep) was “facilitates falling asleep” and the total sleep time (sleep) was “increasing”. The “interaction with GABA:2-oxo-glutarate aminotransferase” value [11] was “did not interact”, the “intensity of non-REM sleep” value [12] was “increase” and the sleep consolidation [12] was “increase”.
For `CCC1(c2ccccc2)CCC(=O)NC1=O` (centres unmarked) [glutethimide], the ED100 (mice) is listed as 300 mg/kg.
In the case of `O=C(CCCN1CCC(O)(c2ccc(Cl)cc2)CC1)c1ccc(F)cc1` [haloperidol], the ED100 (mice) is given as 10 mg/kg.
In the case of `COc1ccc2[nH]cc(CCNC(C)=O)c2c1` [melatonin, N-[2-(5-Methoxy-1H-indol-3-yl)ethyl]acetamide], the “calcium-dependent release of dopamine” value [13] is listed as “selectively inhibit” and the “calcium-dependent release of dopamine” value [14] is listed as “selectively inhibit”.
In the case of `CCCC(C)(COC(N)=O)COC(N)=O` [meprobamate], the ED100 (mice) is listed as 300 mg/kg.
For `CCCC(C)C1(CC)C(=O)NC(=O)NC1=O` (centres unmarked) [pentobarbital], the ED100 (mice) is listed as 100 mg/kg.
In the case of `COC(=O)[C@H]1[C@H]2C[C@@H]3c4[nH]c5cc(OC)ccc5c4CCN3C[C@H]2C[C@@H](OC(=O)c2cc(OC)c(OC)c(OC)c2)[C@@H]1OC` [reserpine], the ED100 (mice) is listed as 50 mg/kg.
For `Cc1ccc(-c2nc3ccc(C)cn3c2CC(=O)N(C)C)cc1` [zolpidem, N,N,6-trimethyl-2-(4-methylphenyl)-imidazo[1,2-s]pyridine-3-acetamide], the “kinetics in the therapeutical dose range” value ([15]; between 5 and 10 mg in conventional forms) is given as “linear kinetics”, the bioavailability ([15]; following oral administration) is given as 70% and the duration of action ([15]; in vivo) is given as “up to 6 hours”. The “time at which peak plasma concentration is reached” value ([15]; in vivo) was 0.5 to 3 h and the elimination half-life ([15]; mean) was 2.4 h.
In the case of zopiclone, the absorption [16] is listed as “well absorbed”.
